According to ChEMBL document CHEMBL4715850, “Exploiting binding-site arginines in drug design: Recent examples” (Bioorg Med Chem Lett, 2020):

Biological target: S-adenosylmethionine synthase isoform type-2 (Homo sapiens, UniProt P31153)
Experiment: Allosteric inhibition of MAT2A (unknown origin) expressed in Escherichia coli BL21(DE3) assessed as reduction in S-adenosyl-methionine formation using methionine as substrate in presence of ATP by ELISA

S-adenosylmethionine synthase isoform type-2, sequence (P31153 whole entry, canonical isoform): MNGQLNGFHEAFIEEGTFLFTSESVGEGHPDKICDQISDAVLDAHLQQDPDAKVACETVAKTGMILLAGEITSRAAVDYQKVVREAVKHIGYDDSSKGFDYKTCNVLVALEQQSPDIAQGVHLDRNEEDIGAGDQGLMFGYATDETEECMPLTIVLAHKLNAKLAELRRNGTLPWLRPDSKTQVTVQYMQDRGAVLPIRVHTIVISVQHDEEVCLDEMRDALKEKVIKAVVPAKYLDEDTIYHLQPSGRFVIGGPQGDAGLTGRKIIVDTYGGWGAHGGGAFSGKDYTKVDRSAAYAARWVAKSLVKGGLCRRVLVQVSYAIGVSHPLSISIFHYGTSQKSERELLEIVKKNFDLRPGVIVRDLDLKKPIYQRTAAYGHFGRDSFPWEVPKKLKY

IC50: 283 nM
Compound: COc1ccc2c(=O)c(C)c(-c3ccnc(-c4ccc(OC(F)(F)F)cc4)c3)[nH]c2c1
